Reference: US5430063A, “Phenoxyphenyl derivatives, compositions thereof and methods for their use” (Akzo N.V., priority 1991, dated 1995)
Where two headings read alike, the source gives them in different places.

Assay: biological half-life for sleep-wake behaviour in rats
Conditions: rat, in vivo
Procedure: The biological half-lives of the phenoxyphenyl derivatives were determined for the sleep-wake behaviour in rats and compared with the half-lives of the prior art compounds.

[1] = biological half-life, sleep-wake behaviour in rats, read-out: half-life (converted)

SMILES: NCc1ccccc1Sc1ccccc1 [2-(phenylthio)benzenemethanamine, reference compound]
- half-life: 0.5 h

SMILES: COc1ccc(Sc2ccccc2CN)cc1 [2-[(4-methoxyphenyl)thio]-benzenemethanamine, reference compound]
- half-life: < 0.5 h

SMILES: Cl.NCc1ccccc1Oc1ccc(Cl)cc1 [Example 1, 2-(4-chlorophenoxy)benzenemethanamine hydrochloride]
- half-life [1]: 1 to 2.5 h

SMILES: Cl.NCc1ccccc1Oc1ccc(Cl)c(Cl)c1 [Example 2, 2-(3,4-dichlorophenoxy)benzenemethanamine hydrochloride]
- half-life [1]: 2.5 h

SMILES: CN(C)Cc1ccccc1Oc1ccc(Cl)cc1.O=C(O)/C=C\C(=O)O [Example 4, 2-(4-chlorophenoxy)-N,N-dimethylbenzenemethanamine (Z)-2-butenedioate]
- half-life: 1 h

SMILES: Clc1ccc(Oc2ccccc2C2=NCCN2)cc1.O=C(O)/C=C\C(=O)O [Example 5, 2-[2-(4-chlorophenoxy)phenyl]-4,5-dihydro-1H-imidazole (Z)-2-butenedioate]
- half-life [1]: 3 h

SMILES: Clc1ccc(Oc2ccccc2C2=NCCN2)cc1Cl.O=C(O)/C=C\C(=O)O [Example 6a, 2-[2-(3,4-dichlorophenoxy)phenyl]-4,5-dihydro-1H-imidazole (Z)-2-butenedioate]
- half-life: 1.5 to 2.5 h
